Assay results taken from patent US9000208B2, “Glutamate derivatives or salts thereof” (Ajinomoto Co., Inc., priority 2010, dated 2015).
Counter-ions that a name gives are not always drawn. Numbered stars: 1 amine (or outer) side, 2 acyl side, 3 side chain; on linkers, the order of the positions; unused ones are H or OH. Square brackets hold non-standard residues; d marks the D form. Ends that are not written are not given here. γGlu = O=C(O)[C@H](CCC(=O)[*:2])N[*:1]

What was measured:
rat large intestine loop = assay: Effect of CaSR agonist on water absorption in rat large intestine loop method (PGE2-treated); format: in vivo; conditions: male SD (IGS) rat, PGE2 i.p., compound in Tyrode solution in the loop, 1 hour
Experimental: Under pentobarbital anesthesia the cecum and large intestine were isolated from the abdomen of a male SD (IGS) rat, and a large intestine loop was prepared by ligating a point 5 cm just below the cecum. Immediately after preparing the loop, PGE2 (4 μg/ml/kg, SIGMA) was intraperitoneally administered. Thirty minutes later, 2 ml of Tyrode solution (136.9 mM NaCl, 2.7 mM KCl, 1.8 mM CaCl2.2H2O, 1.04 mM MgCl2.6H2O, 0.04 mM NaH2PO4.2H2O, 5.55 mM glucose and 11.9 mM NaHCO3) was poured into the loop prepared. An hour later, the weight of the loop, the weight when the liquid was removed from the loop and the loop area were measured to calculate the weight per unit area of the liquid that remains in the loop.
A test compound was dissolved in Tyrode solution (adjusted to pH 6.5 to 7.5), which was provided for tests.
The remaining liquid weight per unit area (g/cm^2) was calculated by the following equation. Remaining liquid weight per unit area (g/cm^2)=(loop weight−loop weight when the liquid was removed from the loop)/loop area
Water absorption was evaluated by calculating the inhibition ratio by the following equation. Inhibition ratio(%)=100−(remaining liquid weight per unit area with a drug−basic average remaining liquid weight per unit area)/(average remaining liquid weight per unit area of vehicle−basic average remaining liquid weight per unit area)×100 […]

[1] = Evaluation of kokumi taste, quantitative sensory evaluation test; parameters: species or system human; conditions: for Kokumi Intensity Aftertaste / Kokumi Intensity First-middle taste: score control 0, strong 3, very strong 5, n=4
Experimental: On the compounds in which the calcium receptor activating action was found (sodium salts of Compound Nos. 1, 7 and 21), the intensity of kokumi-imparting activity was examined by a quantitative sensory evaluation test. In 5 ml of distilled water was dissolved 525 mg of Compound No. 1 described in REFERENCE EXAMPLE I and of REFERENCE […] EXAMPLE I. By adding 16.4 ml of 0.1M sodium hydroxide solution to the resulting solution, the solution was adjusted to pH 6.5 to 7 followed by freeze-drying. The resulting Na salt was provided for use. In addition, 500 mg of Compound No. 7 described in REFERENCE EXAMPLE I and REFERENCE […] EXAMPLE 7 was suspended in 5 ml of distilled water. To the suspension were sequentially added 1.61 ml of 1M sodium hydroxide and 0.8 ml of 2M hydrochloric acid at 0° C. The solid precipitated was taken out by filtration and dried under reduced pressure at 40° C. to give 426 mg of Reference Compound No. 7. After the solid substance obtained was suspended in 10 ml of distilled water, 1.2 ml of 1M sodium hydroxide was added to the suspension and freeze-dried. The resulting Na salt was provided for use. Reference Compound No. 21 was used in the form of the Na salt, which was prepared from Compound No. 21 described in REFERENCE EXAMPLE I and REFERENCE […] EXAMPLE 21 by the same procedures as described above.
A quantitative sensory evaluation test was conducted as follows. The intensity of kokumi-imparting activity was examined when 0.000001 to 0.1 g/dl of the compound as a sample (No. 1—Na salt) was mixed with distilled water containing sodium glutamate (0.05 g/dl), inosine monophosphate (0.05 g/dl) and sodium chloride (0.5 g/dl). As a reference, γGlu-Cys-Gly and γGlu-Val-Gly were used, each of which is a known kokumi-imparting component. The sample that became acidic to an additive-free control after dissolving the sample was used by adjusting its pH within ±0.2 with NaOH based on the additive-free control. Sensory scoring was defined as a control: 0, strong: 3 and very strong: 5, and performed in n=4. Meanwhile, a “first-middle taste” is intended to mean the taste combining the first taste and middle taste.

N[C@@H](CCC(=O)Nc1cc(Cl)cc(S(=O)(=O)O)c1O)C(=O)O [Reference Compound No. 7, N^5-(5-chloro-2-hydroxy-3-sulfophenyl)-L-glutamine]
Water absorption (rat large intestine loop): promoted in a dose-dependent manner

Cc1c(Cl)cc(NC(=O)CC[C@H](N)C(=O)O)cc1S(=O)(=O)O [No. 21-Na salt, N^5-(3-chloro-4-methyl-5-sulfophenyl)-L-glutamine]
Kokumi Intensity Aftertaste ([1]; 0.0002 g/dl): 2.0
Kokumi Intensity First-middle taste ([1]; 0.0002 g/dl): 1.5
Kokumi Intensity Aftertaste ([1]; 0.0005 g/dl): 3.1
Kokumi Intensity First-middle taste ([1]; 0.0005 g/dl): 2.6
Kokumi Intensity Aftertaste ([1]; 0.001 g/dl): 3.7
Kokumi Intensity First-middle taste ([1]; 0.001 g/dl): 3.1

N[C@@H](CCC(=O)Nc1cccc(S(=O)(=O)O)c1)C(=O)O [Reference Compound No. 1, N^5-(3-sulfophenyl)-L-glutamine]
Water absorption (rat large intestine loop): promoted dose-dependently

[γGlu]-Cys-Gly
Comments on Sensory Evaluation ([1]; 0.01 g/dl): Richness, thickness and continuity
Kokumi Intensity Aftertaste ([1]; 0.01 g/dl): 3.0
Kokumi Intensity First-middle taste ([1]; 0.01 g/dl): 3.0

N[C@@H](CCC(=O)Nc1cc(Cl)cc(S(=O)(=O)O)c1O)C(=O)O [No. 7-Na salt, N^5-(5-chloro-2-hydroxy-3-sulfophenyl)-L-glutamine]
Comments on Sensory Evaluation ([1]; 0.00005 g/dl): Thickness mainly in the middle taste.
Kokumi Intensity Aftertaste ([1]; 0.00005 g/dl): 2.5
Kokumi Intensity First-middle taste ([1]; 0.00005 g/dl): 2.2
Kokumi Intensity Aftertaste ([1]; 0.0001 g/dl): 3.2
Kokumi Intensity First-middle taste ([1]; 0.0001 g/dl): 2.5
Comments on Sensory Evaluation ([1]; 0.0005 g/dl): Rich thickness in the middle taste
Kokumi Intensity Aftertaste ([1]; 0.0005 g/dl): 4.0
Kokumi Intensity First-middle taste ([1]; 0.0005 g/dl): 3.3

[γGlu]-Val-Gly
Comments on Sensory Evaluation ([1]; 0.001 g/dl): Smoothness, richness and growth
Kokumi Intensity Aftertaste ([1]; 0.001 g/dl): 3.0
Kokumi Intensity First-middle taste ([1]; 0.001 g/dl): 2.5
Comments on Sensory Evaluation ([1]; 0.005 g/dl): Smoothness, richness and growth
Kokumi Intensity Aftertaste ([1]; 0.005 g/dl): 4.0
Kokumi Intensity First-middle taste ([1]; 0.005 g/dl): 3.5

N[C@@H](CCC(=O)Nc1cccc(S(=O)(=O)O)c1)C(=O)O [No. 1-Na salt, N^5-(3-sulfophenyl)-L-glutamine]
kokumi-imparting activity ([1]; 0.000001 to 0.1 g/dl in water with sodium glutamate 0.05, inosine monophosphate 0.05, sodium chloride 0.5 g/dl): widely found in the above concentrations
Kokumi Intensity Aftertaste ([1]; 0.00001 g/dl): 1.0
Kokumi Intensity First-middle taste ([1]; 0.00001 g/dl): 0.7
Comments on Sensory Evaluation ([1]; 0.0001 g/dl): There was harmony accompanied
Kokumi Intensity Aftertaste ([1]; 0.0001 g/dl): 2.0
Kokumi Intensity First-middle taste ([1]; 0.0001 g/dl): 1.8
Kokumi Intensity Aftertaste ([1]; 0.0005 g/dl): 3.0
Kokumi Intensity First-middle taste ([1]; 0.0005 g/dl): 2.6
Kokumi Intensity Aftertaste ([1]; 0.001 g/dl): 3.6
Kokumi Intensity First-middle taste ([1]; 0.001 g/dl): 3.2
Comments on Sensory Evaluation ([1]; 0.01 g/dl): All tastes were strong.
Kokumi Intensity Aftertaste ([1]; 0.01 g/dl): 5.0
Kokumi Intensity First-middle taste ([1]; 0.01 g/dl): 5.0
